Results published in the supplement of paper PMC11451515.

Key:
Details in all cases: 48 h
SEM cells [1] = assay: AUC of viability dose-response curve (% viability x log10 dose units); higher = less sensitive
In short: (§1)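 Leukemia cells adapted to each medium (500 or 1000 cells/well, 1536-well plates) were exposed to library compounds in DMSO for 48 h at 37°C at 11 threefold doses, 47 μM to 0.79 nM. Luminescence by CellTiter-Glo One was normalised per plate to DMSO and cell-free wells, then fitted with a four-parameter log-logistic curve on log10 dose. Curves above full viability were scaled and quality-control failures removed before area under the curve was integrated by trapezoidal rule.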

P12-Ichikawa [2] = assay: as above
In short: as §1

NOMO1 [3] = assay: as above
In short: as §1

SEM cells [4] = assay: cell viability relative to DMSO control; higher = less cytotoxic
In short: (§2)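 Viability was expressed as a per-plate percentage of DMSO wells, with cell-free wells as background. Leukemia cells (NOMO1 or SEM at 500 cells/well, P12-Ichikawa at 1000 cells/well) were adapted for at least four passages in each medium and seeded in 1536-well plates (5 μl). Library compounds in DMSO were pin-dosed over an 11-point threefold series from 47 μM to 0.79 nM, and CellTiter-Glo One luminescence was read after 48 h at 37°C.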

P12-Ichikawa [5] = assay: as above
In short: as §2

NOMO1 [6] = assay: as above
In short: as §2

CC(C)Oc1cc(Nc2nc(N[C@@H](C)c3ccc(F)cn3)ncc2Cl)n[nH]1
AUC of viability dose-response curve
Details | NOMO1 [3] | P12-Ichikawa [2] | SEM cells [1]
HPLM + 10% dialyzed FBS | 449 | 344 | 319
RPMI 5 mM glucose + 10% FBS | 409 | 349 | 310
RPMI 5 mM glucose + 10% dialyzed FBS | 412 | 366 | 291

cell viability [%]
Details | NOMO1 [6] | P12-Ichikawa [5] | SEM cells [4]
HPLM + 10% dialyzed FBS, 0.000781 µM | 104 | 111 | 106
HPLM + 10% dialyzed FBS, 0.00234 µM | 113 | 111 | 103
HPLM + 10% dialyzed FBS, 0.00702 µM | 120 | 116 | 90.3
HPLM + 10% dialyzed FBS, 0.0211 µM | 114 | 112 | 102
HPLM + 10% dialyzed FBS, 0.0632 µM | 99 | 110 | 96.3
HPLM + 10% dialyzed FBS, 0.19 µM | 96.8 | 115 | 80.5
HPLM + 10% dialyzed FBS, 0.569 µM | 127 | 106 | 50.5
HPLM + 10% dialyzed FBS, 1.71 µM | 94.1 | 13.3 | 34.6
HPLM + 10% dialyzed FBS, 5.12 µM | 101 | 14.7 | 26
HPLM + 10% dialyzed FBS, 15.4 µM | 108 | 29.6 | 22.1
HPLM + 10% dialyzed FBS, 46.1 µM | 92.4 | 41.1 | 25.3
RPMI 5 mM glucose + 10% FBS, 0.000781 µM | 107 | 104 | 109
RPMI 5 mM glucose + 10% FBS, 0.00234 µM | 100 | 92.9 | 83.1
RPMI 5 mM glucose + 10% FBS, 0.00702 µM | 111 | 105 | 96
RPMI 5 mM glucose + 10% FBS, 0.0211 µM | 110 | 106 | 95.6
RPMI 5 mM glucose + 10% FBS, 0.0632 µM | 104 | 108 | 108
RPMI 5 mM glucose + 10% FBS, 0.19 µM | 104 | 110 | 81.2
RPMI 5 mM glucose + 10% FBS, 0.569 µM | 116 | 104 | 60.3
RPMI 5 mM glucose + 10% FBS, 1.71 µM | 53.7 | 15.2 | 21.9
RPMI 5 mM glucose + 10% FBS, 5.12 µM | 60.4 | 17 | 19.2
RPMI 5 mM glucose + 10% FBS, 15.4 µM | 68 | 27.5 | 14.8
RPMI 5 mM glucose + 10% FBS, 46.1 µM | 72.6 | 40 | 16.2
RPMI 5 mM glucose + 10% dialyzed FBS, 0.000781 µM | 101 | 113 | 84.9
RPMI 5 mM glucose + 10% dialyzed FBS, 0.00234 µM | 109 | 113 | 98
RPMI 5 mM glucose + 10% dialyzed FBS, 0.00702 µM | 115 | 108 | 100
RPMI 5 mM glucose + 10% dialyzed FBS, 0.0211 µM | 100 | 114 | 114
RPMI 5 mM glucose + 10% dialyzed FBS, 0.0632 µM | 134 | 115 | 83
RPMI 5 mM glucose + 10% dialyzed FBS, 0.19 µM | 110 | 116 | 67.9
RPMI 5 mM glucose + 10% dialyzed FBS, 0.569 µM | 110 | 105 | 43.4
RPMI 5 mM glucose + 10% dialyzed FBS, 1.71 µM | 61.6 | 27.9 | 26.3
RPMI 5 mM glucose + 10% dialyzed FBS, 5.12 µM | 57.6 | 30.5 | 17.9
RPMI 5 mM glucose + 10% dialyzed FBS, 15.4 µM | 68.9 | 46.6 | 14.9
RPMI 5 mM glucose + 10% dialyzed FBS, 46.1 µM | 85.9 | 55.5 | 16.2
